The target in this test is T1, full-length human PKCι (Homo sapiens, UniProt P41743).
T1 construct: Recombinant, full-length human PKCι expressed in Sf21 insect cells is also commercially available; purchased; host or cells: Sf21 insect cells
T1 sequence (P41743 1-596): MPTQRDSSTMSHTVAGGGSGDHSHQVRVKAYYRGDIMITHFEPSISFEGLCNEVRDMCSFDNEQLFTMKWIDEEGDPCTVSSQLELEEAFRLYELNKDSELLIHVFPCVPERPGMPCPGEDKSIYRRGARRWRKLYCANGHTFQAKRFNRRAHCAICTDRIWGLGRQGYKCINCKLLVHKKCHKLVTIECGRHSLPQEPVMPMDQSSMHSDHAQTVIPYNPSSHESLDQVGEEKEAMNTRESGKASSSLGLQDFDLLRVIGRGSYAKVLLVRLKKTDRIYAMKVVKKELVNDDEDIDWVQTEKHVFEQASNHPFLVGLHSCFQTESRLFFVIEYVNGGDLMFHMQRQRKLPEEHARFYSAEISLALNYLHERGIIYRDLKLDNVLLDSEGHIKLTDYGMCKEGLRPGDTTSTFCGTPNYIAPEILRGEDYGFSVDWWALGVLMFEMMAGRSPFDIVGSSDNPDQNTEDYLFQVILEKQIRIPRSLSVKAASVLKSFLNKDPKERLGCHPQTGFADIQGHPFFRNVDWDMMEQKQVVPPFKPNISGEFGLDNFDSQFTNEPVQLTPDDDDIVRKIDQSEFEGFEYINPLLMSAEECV
The test can be described thus: PKCι IC50 IMAP assay, full-length PKCι at 150 μM ATP. In kind it is biochemical. The note with it: read-out: IC50 in IMAP assay against full length PKCi at 150 μM ATP. The essentials: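 Full-length human PKCι from Sf21 cells, typically 15 pM, with 100 nM 5FAM-PKCε pseudosubstrate peptide and 150 μM ATP (5× apparent KM), 60 min at room temperature, 4% DMSO. IMAP fluorescence polarisation read-out; inhibition normalised to no-compound and no-enzyme controls, IC50 from curve fit.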

Each structure is given as a SMILES string.

A word on the IC50: it is the concentration at which inhibition is half-maximal. On to `CNC(=O)c1ccc(Nc2cc(-c3nc(N4CCNCC4)c4c(C5CC5)cncc4n3)ccn2)cc1` [Example 841, -[4-(5-Cyclopropyl-4-piperazin-1-yl-pyrido[3,4-d]pyrimidin-2-yl)-pyridin-2-ylamino]-N-methyl-benzamide], for which the IC50 was less than 100 nM.

`Clc1ccc2[nH]c3nccc(-c4nc(N5CCNCC5)c5c(C6CCC6)cncc5n4)c3c2c1` [Example 2200, 6-Chloro-4-(5-cyclobutyl-4-piperazin-1-yl-pyrido[3,4-d]pyrimidin-2-yl)-9H-pyrido[2,3-b]indole]: the IC50 was less than 100 nM.

With `CC(=O)N1CCC(N(C)c2nc(-c3ccnc(Nc4c(F)cccc4F)c3)nc3cncc(C4CC4)c23)CC1` [Example 2096, 1-[4-({5-Cyclopropyl-2-[2-(2,6-difluoro-phenylamino)-pyridin-4-yl]-pyrido[3,4-d]pyrimidin-4-yl}-methyl-amino)-piperidin-1-yl]-ethanone], the IC50 fell in the range of 100 to 1000 nM.

`NCCNc1nc(-c2ccncc2)nc2cnccc12` [Example 3, N-(2-aminoethyl)-2-(pyridin-4-yl)-pyrido[3,4-d]-pyrimidin-4-amine]: the concentration for half-maximal inhibition (IC50) was in the range of 10000 to 40000 nM.

For `Cc1ccnc(Nc2cc(-c3nc(N[C@@H]4CCNC4)c4ccncc4n3)ccn2)c1` [Example 338, {2-[2-(4-Methyl-pyridin-2-ylamino)-pyridin-4-yl]-pyrido[3,4-d]pyrimidin-4-yl}-(R)-pyrrolidin-3-yl-amine], the IC50 lay within 1000 to 10000 nM.

Take `COc1cncc2nc(-c3ccnc(Nc4c(F)cccc4F)c3)nc(N3CCN[C@@H](CO)C3)c12` [Example 442, ((R)-4-{2-[2-(2,6-Difluoro-phenylamino)-pyridin-4-yl]-5-methoxy-pyrido[3,4-d]pyrimidin-4-yl}-piperazin-2-yl)-methanol]: the IC50 was less than 100 nM.

In the case of `FC(F)(F)c1cc2c(-c3nc(SC4CCNCC4)c4c(C5CC5)cncc4n3)ccnc2[nH]1` [Example 2134, 5-Cyclopropyl-4-(piperidin-4-ylsulfanyl)-2-(2-trifluoromethyl-1H-pyrrolo[2,3-b]pyridin-4-yl)-pyrido[3,4-d]pyrimidine], the IC50 was less than 100 nM.

On to `CN1CCC(Nc2nc(-c3ccnc(Nc4c(F)cccc4F)c3)nc3cncc(C4CC4)c23)CC1` [Example 2084, {5-Cyclopropyl-2-[2-(2,6-difluoro-phenylamino)-pyridin-4-yl]-pyrido[3,4-d]pyrimidin-4-yl}-(1-methyl-piperidin-4-yl)-amine], for which the half-inhibitory concentration (IC50) is less than 100 nM.

On to `CC(C)(C)c1cc2c(-c3nc(N4CCNC(=O)CC4)c4c(C5CC5)cncc4n3)ccnc2[nH]1` [Example 1249, 1-[2-(2-tert-Butyl-1H-pyrrolo[2,3-b]pyridin-4-yl)-5-cyclopropyl-pyrido[3,4-d]pyrimidin-4-yl]-[1,4]diazepan-5-one], for which the IC50 is less than 100 nM.

Turning to `COc1cncc2nc(-c3ccncc3)nc(N3CCN(CC#N)CC3)c12` [Example 87, 2-{4-[5-methoxy-2-(pyridin-4-yl)pyrido[3,4-d]pyrimidin-4-yl]piperazin-1-yl}acetonitrile], the IC50 was in the range of 10000 to 40000 nM.

With `C[C@H]1CN(c2nc(-c3ccnc(Nc4ncccc4F)c3)nc3cncc(C4CC4)c23)CCN1` [Example 800, {4-[5-Cyclopropyl-4-((S)-3-methyl-piperazin-1-yl)-pyrido[3,4-d]pyrimidin-2-yl]-pyridin-2-yl}-(3-fluoro-pyridin-2-yl)-amine], the IC50 is less than 100 nM.

Consider `Cc1ccc(-c2nccc3c(NC[C@@H](N)Cc4ccccc4)nc(-c4ccncc4)nc23)s1` [Example 111, N-[(2S)-2-amino-3-phenylpropyl]-8-(5-methyl-thiophen-2-yl)-2-(pyridin-4-yl)pyrido[3,4-d]pyrimidin-4-amine], for which the IC50 is 100 to 1000 nM.

Take `Cn1ccc(Nc2cc(-c3nc(N4CCNC(C)(C)C4)c4c(C5CC5)cncc4n3)ccn2)n1` [Example 832, {4-[5-Cyclopropyl-4-(3,3-dimethyl-piperazin-1-yl)-pyrido[3,4-d]pyrimidin-2-yl]-pyridin-2-yl}-(1-methyl-1H-pyrazol-3-yl)-amine]: the IC50 was less than 100 nM.

Regarding `CN1CCN(c2cccc(Nc3cc(-c4nc(N5CCC(O)(O)C(F)(F)C5)c5c(C6CC6)cncc5n4)ccn3)c2)CC1` [Example 747, 1-(5-Cyclopropyl-2-{2-[3-(4-methyl-piperazin-1-yl)-phenylamino]-pyridin-4-yl}-pyrido[3,4-d]pyrimidin-4-yl)-3,3-difluoro-piperidine-4,4-diol], the IC50 is less than 100 nM.

For `COc1cncc2nc(-c3ccnc(Nc4ccccc4)c3)nc(N3CC[C@@H](O)[C@H](O)C3)c12` (racemic) [Example 437, (±)-trans-1-[5-Methoxy-2-(2-phenylamino-pyridin-4-yl)-pyrido[3,4-d]pyrimidin-4-yl]-piperidine-3,4-diol], the IC50 fell in the range of 100 to 1000 nM.

For `c1ccc(-c2cccc(Nc3cc(-c4nc(N5CCNCC5)c5c(C6CC6)cncc5n4)ccn3)c2)cc1` [Example 2051, Biphenyl-3-yl-[4-(5-cyclopropyl-4-piperazin-1-yl-pyrido[3,4-d]pyrimidin-2-yl)-pyridin-2-yl]-amine], the IC50 was less than 100 nM.

As to `COc1cncc2nc(-c3ccnc(NC(=O)Cc4cccc(N)c4)c3)nc(N[C@@H]3CCNC3)c12` [Example 325, 2-(3-Amino-phenyl)-N-{4-[5-methoxy-4-((R)-pyrrolidin-3-ylamino)-pyrido[3,4-d]pyrimidin-2-yl]-pyridin-2-yl}-acetamide], the IC50 lay in the range of 10000 to 40000 nM.

Take `CN(c1nc(-c2ccnc(Nc3c(F)cccc3F)c2)nc2cncc(C3CC3)c12)C1CCNC1` (stereo not drawn) [Example 2025, {5-Cyclopropyl-2-[2-(2,6-difluoro-phenylamino)-pyridin-4-yl]-pyrido[3,4-d]pyrimidin-4-yl}-methyl-pyrrolidin-3-yl-amine]: the IC50 is less than 100 nM.

Take `CN1CCN(c2cccc(Nc3cc(-c4nc(N5CCC(O)C(O)C5)c5c(C6CC6)cncc5n4)ccn3)c2)CC1` (racemic) [Example 678, (+/−)-(trans)-1-(5-Cyclopropyl-2-{2-[3-(4-methyl-piperazin-1-yl)-phenylamino]-pyridin-4-yl}-pyrido[3,4d]pyrimidin-4-yl)-piperidine-3,4-diol]: the IC50 was less than 100 nM.

`CN1CCC(Sc2nc(-c3ccnc(Nc4c(F)cccc4F)c3)nc3cncc(C4CC4)c23)CC1` [Example 2128, {4-[5-Cyclopropyl-4-(1-methyl-piperidin-4-ylsulfanyl)-pyrido[3,4-d]pyrimidin-2-yl]-pyridin-2-yl}-(2,6-difluoro-phenyl)-amine]: the IC50 was 100 to 1000 nM.

Consider `Cc1ccc(C#N)cc1Nc1cc(-c2nc(N3CCNCC3)c3c(C4CC4)cncc3n2)ccn1` [Example 524, 3-[4-(5-Cyclopropyl-4-piperazin-1-yl-pyrido[3,4-d]pyrimidin-2-yl)-pyridin-2-ylamino]-4-methyl-benzonitrile], for which the IC50 was less than 100 nM.

On to `C[C@@H]1CN(c2nc(-c3ccnc(Nc4nc(F)c(F)cc4F)c3)nc3cncc(C4CC4)c23)C[C@H](C)N1` [Example 828, {4-[5-Cyclopropyl-4-((3R,5S)-3,5-dimethyl-piperazin-1-yl)-pyrido[3,4-d]pyrimidin-2-yl]-pyridin-2-yl}-(3,5,6-trifluoro-pyridin-2-yl)-amine], for which the IC50 is less than 100 nM.

With `C[C@H]1CN(c2nc(-c3ccnc4[nH]c(C(F)(F)F)cc34)nc3cncc(C4CC4)c23)CCN1` [Example 1233, 5-Cyclopropyl-4-((S)-3-methyl-piperazin-1-yl)-2-(2-trifluoromethyl-1H-pyrrolo[2,3-b]pyridin-4-yl)-pyrido[3,4-d]pyrimidine], the IC50 is less than 100 nM.

As to `CSc1nccc2c(NC[C@@H](N)Cc3ccccc3)nc(-c3ccncc3)nc12` [Example 130, N-[(2S)-2-amino-3-phenylpropyl]-8-(methylsulfanyl)-2-(pyridin-4-yl)pyrido[3,4-d]pyrimidin-4-amine], the IC50 was 1000 to 10000 nM.

Consider `FC(F)(F)[C@@H]1CN(c2nc(-c3ccnc4[nH]ccc34)nc3cncc(C4CC4)c23)CCN1` [Example 1214, 5-Cyclopropyl-2-(1H-pyrrolo[2,3-b]pyridin-4-yl)-4-((S)-3-trifluoromethyl-piperazin-1-yl)-pyrido[3,4-d]pyrimidine], for which the IC50 was less than 100 nM.

On to `Fc1cccc(F)c1Nc1cc(-c2nc(N3CCNC4CC43)c3c(C4CC4)cncc3n2)ccn1` (stereo not drawn) [Example 538, {4-[5-Cyclopropyl-4-(2,5-diaza-bicyclo-[4.1.0]hept-2-yl)-pyrido[3,4-d]pyrimidin-2-yl]-pyridin-2-yl}-(2,6-difluoro-phenyl)-amine], for which the IC50 was less than 100 nM.

For `NC(=O)COc1ccc(Nc2cc(-c3nc(N[C@@H]4CCNC4)c4ccncc4n3)ccn2)cc1` [Example 310, 2-(4-{4-[4-((R)-Pyrrolidin-3-ylamino)-pyrido[3,4-d]pyrimidin-2-yl]-pyridin-2-ylamino}-phenoxy)-acetamide], the IC50 was in the range of 100 to 1000 nM.

Source of the values: patent publication US9914730B2, “Azaquinazoline inhibitors of Atypical protein Kinase C” (Ignyta, Inc., priority 2012, dated 2018).
